Columns and labels:
[1] = test system: T. cruzi intracellular amastigotes (Colombian strain) in C2C12 cells; assay: Antiamastigote activity, infection index, treatment after infection, C2C12; type: cell-based, Trypanosoma cruzi; settings: for IC50: Trypanosoma cruzi, infected C2C12, 48 h treatment after infection; for selective index C2C12: CC50/IC50, C2C12, treatment after infection
Method: (§1) Considering the dynamics of T. cruzi infection in humans, characterized by an increase in parasitic load through intracellular replication of amastigote forms in various cell types, we evaluated the action of the compounds in LLC-MK2 (epithelial cells) and C2C12 (myoblasts) using an in vitro infection model.
(§2) The antiamastigote activity was assessed by calculating the infection index, defined as the percentage of infected cells multiplied by the mean number of amastigotes per cell. Noninfected control cells were subjected to identical treatment conditions to evaluate the cytotoxicity of the compounds (CC50). This comprehensive approach allowed for the simultaneous assessment of antiparasitic efficacy and compound-induced cytotoxicity, offering valuable insights into their therapeutic potential.
(§3) In the infection plate each well was added 50 μL of cold methanol for cell fixation. The plate was kept at −20 °C for 1 h. After this period, the wells were blocked with 50 μL of PBS 1X-Saponin 0.1 + 10% rabbit serum for 10 min at room temperature. Following, the wells were washed four times with PBS 1X-Saponin 0.1% and 50 μL of the same solution was added to each well, incubating for 20 min at room temperature. Subsequently, 50 μL of PBS 1X-Saponin 0.1% + anti-T. cruzi antibody (from serum of infected patients) at a 1:10 dilution was added, and the plate was incubated for 1 h at room temperature. The wells were then washed four times with PBS 1X-Saponin 0.1%, and 50 μL of PBS 1X-Saponin 0.1% + antihuman IgG-FITC at a 1:200 dilution was added. The plate was incubated wrapped in aluminum foil for 30 min. After incubation, the plate was washed four times with PBS 1X-Saponin 0.1%, and 50 μL of PBS 1X was added to all wells after the final wash. For nuclear staining, the plate, already stained with FITC, was washed three times with PBS 1X, and 200 μL of PBS 1X + 1 μL of iodide per well was added. After staining, the wells were washed again, and 100 μL of PBS 1X was added before imaging.
(§4) The plate was analyzed in the EVOS fluorescence microscope for image acquisition and fluorescence identification, in which the anti-IgG-FITC stains parasite′s membrane in green and iodide stains nuclei in red. On each condition of treatment, 200 cells of 3 wells were evaluated as to the number of infected cells and the number of parasites per cell for calculating the index of infection the IC50 were calculated by Nonlinear regression curves (log[inhibitor] vs normalized response). Selective index was calculated by dividing CC50 per IC50.

[2] = test system: T. cruzi Tulahuen CL2 β-galactosidase strain; assay: Antitrypanosomal screening, anti-T. cruzi (trypomastigote) activity, CPRG photometric method; type: cell-based; settings: Trypanosoma cruzi; Tulahuen CL2 β-galactosidase strain on MRC-5SV2; values in parentheses mean ± SEM of two experiments
Method: A preliminary assay was conducted to evaluate the analogs’ in vitro cytotoxicity and antitrypanosomatid activity against T. cruzi Tulahuen strain (Table ). […] However, the promising results of analog 16 encouraged us to conduct more in-depth studies on this compound.
Anti-parasitic assays were conducted following established protocols outlined in earlier literature. In brief, for assessing anti-T. cruzi activity, the Tulahuen CL2 β-galactosidase strain (nifurtimox-sensitive) was employed and maintained on MRC-5SV2 (human lung fibroblast). A total of 4 × 10^3 cells were infected with 4 × 10^4 parasites per well. The synthesized analogs were tested at concentrations ranging from 1.56 to 50.00 μM. Parasite burdens were evaluated after the addition of the substrate CPRG (chlorophenol red ß-D-galactopyranoside). The change in color was measured spectrophotometrically at 540 nm after 4 h of incubation at 37°C. In all assays, parasite growth was compared to untreated-infected controls (100% growth) and noninfected controls (0% growth). Results were expressed as the percentage of parasite reduction at different drug concentrations and used to calculate IC50 values from the dose–response curves.

[3] = test system: T. cruzi intracellular amastigotes (Colombian strain) in LLC-MK2 cells; assay: Antiamastigote activity, infection index, treatment after infection, LLC-MK2; type: cell-based, Trypanosoma cruzi; settings: for IC50: infected LLC-MK2, 48 h treatment after infection; for selective index MK2: CC50/IC50, LLC-MK2, treatment after infection; for selectivity indices: stated in text across LLC-MK2 and C2C12, treatment after infection
Method: as §1, §2, §3, §4

[4] = Cellular viability (MTT), noninfected C2C12; type: cell-based, murine; settings: mouse, noninfected C2C12 myoblast cells; noninfected C2C12, Table 2 (treatment after infection); read-out: CC50 non infected C2C12
Method: as §2
(§5) The LLC-MK2 (ATCC CCL-7) cell line of epithelial origin, and C2C12 (ATCC CRL-1772) myoblast cells, derived from murine myoblasts, were maintained in Roswell Park Memorial Institute-RPMI 1640 medium supplemented with L-glutamine, 25 mM HEPES (Corning), 10% (v/v) fetal bovine serum (FBS), and gentamicin (1 μL/mL). […] Once the cells reached 80% confluence, were detached using Trypsin-EDTA and prepared in the subsequent experiments.
(§6) Following 24 h of treatment, 10 μL of 5 mg/mL of MTT (3-(4,5-dimethylthiazol-2-yl)-2,5-diphenyltetrazolium bromide) was added per well, and absorbance was evaluated in the Eon Microplate Spectrophotometer Reader (BioTek) at 570–690 nm. CC50 were calculated by Nonlinear regression curves (log[inhibitor] vs normalized response).

[5] = test system: trypomastigotes forms of T. cruzi Tulahuen strain (LacZ); set-up: method as in de Andrade et al., 2015; settings: previous work of the group; ref de Andrade et al., 2015; read-out: IC50 against trypomastigotes forms of T. cruzi Tulahuen strain (LacZ); cited from earlier work
[6] = test system: T. cruzi nitroreductase (TcNTR72); assay: T. cruzi nitroreductase activity assay (NADH oxidation); settings: 50 μM NADH, 25 °C; for Kobs (12.5 μM): compound 12.5 μM; for Kobs (25 μM): compound 25 μM; for Kobs (50 μM): compound 50 μM; for Kobs (100 μM): compound 100 μM
Method: TcNTR72 was expressed, purified, and its activity was tested following previously described protocol. […] This mixture was incubated at room temperature for 5 min. […] All assays were performed in triplicate for each measurement and for each concentration. Benznidazole was used as a control.

[7] = Cellular viability (MTT), noninfected LLC-MK2; type: cell-based; settings: rhesus monkey, noninfected LLC-MK2 epithelial cells; noninfected LLC-MK2, Table 2 (treatment after infection); read-out: CC50 non infected MK2
Method: as §2, §6

[8] = Cytotoxicity against primary mouse macrophages; type: cell-based; settings: mouse, primary mouse macrophages (PMM)
Source text: 1 In Vitro Anti- T. cruzi (Trypomastigote) Activity and Cytotoxicity Assessment of Hit 1 Analogs ^a | column: PMM CC50 (μM)

C2C12 cells = assay: Cellular viability (MTT), noninfected C2C12; type: cell-based, murine; settings: noninfected C2C12, Table 3 (treatment previously to infection); read-out: CC50 non infected C2C12
Method: as §2, §5, §6

[9] = Preliminary cytotoxicity assay, resazurin; type: cell-based; settings: MRC-5SV2 lung fibroblast cells; human MRC-5 cell line, 3 days incubation
Method: MRC-5SV2 cell cytotoxicity was assessed following the methodology outlined in earlier literature. Briefly, cells at a concentration of 1.5 × 10^5 cells/mL were cultured with compound dilutions at 37 °C and 5% CO2. Cell growth was compared to untreated-control wells (100% cell growth) and medium-control wells (0% cell growth). After 3 days of incubation, cell viability was fluorometrically assessed following the addition of 50-μL resazurin per well. Fluorescence was measured after 4 h at 37 °C (λex 550 nm, λem 590 nm). The results were expressed as the percentage reduction in cell growth/viability compared to control wells, and an IC50 value was determined.

Solubility observations = settings: 2.000 to 0.062 mM, 0.5% DMSO
[10] = test system: T. cruzi amastigotes (Colombian strain) in pre-exposed LLC-MK2 cells; assay: Antiamastigote activity in pretreated (pre-exposed) LLC-MK2 cells; type: cell-based, Trypanosoma cruzi; settings: for selective index MK2: CC50/IC50, LLC-MK2 treated previously to infection; for IC50: Trypanosoma cruzi, LLC-MK2 treated previously to infection
Method: (§7) After 24 h, the culture medium was removed and replaced with fresh medium containing cell-derived trypomastigotes (MOI 20:1, Colombian strain) overnight.
as §3, §4

LLC-MK2 cells = assay: Cellular viability (MTT), noninfected LLC-MK2; type: cell-based; settings: noninfected LLC-MK2, Table 3 (treatment previously to infection); read-out: CC50 non infected MK2
Method: as §2, §6

[11] = test system: T. cruzi amastigotes (Colombian strain) in pre-exposed C2C12 cells; assay: Antiamastigote activity in pretreated (pre-exposed) C2C12 cells; type: cell-based, Trypanosoma cruzi; settings: for selective index C2C12: CC50/IC50, C2C12 treated previously to infection; for IC50: Trypanosoma cruzi, C2C12 treated previously to infection
Method: as §7, §3, §4

[12] = biological target: T1, Recombinant trans-sialidase from T. cruzi (TcTS) (Trypanosoma cruzi, UniProt Q26966); assay: Continuous fluorimetric TcTS inhibition (MuNANA hydrolysis); type: biochemical
T1 construct: A truncated recombinant TcTs, containing the enzyme’s catalytic N-terminal domain, was used; made in house
Method: Although the main reaction catalyzed by TcTS involves the transfer of host sialic acids to β-galactose acceptors found in parasite surface mucins, a residual hydrolase activity is also present and was utilized to screen a small library of TcTS inhibitors.
A truncated recombinant TcTs, containing the enzyme’s catalytic N-terminal domain, was used. The production and purification of TcTs were performed following previously described protocols. The continuous fluorimetric TcTS assay was conducted in 96-well plates containing phosphate buffer solution at pH 7.4 (25 μL), recombinant enzyme solution (25 μL) and inhibitor solution (25 μL). […] The enzyme activity was measured by calculating the slope of the curve for each concentration of the test compound. Pyridoxal phosphate was used as the inhibition control at a concentration of 1 mM. The IC50 value was determined using the log(inhibitor) vs normalized response–variable slope model in GraphPad Prism version 10.0.0 for Windows, GraphPad Software, Boston, Massachusetts (www.graphpad.com).

[13] = previous work of the group; cited from earlier work
[14] = Trypanosoma cruzi, LLC-MK2, 48 h

T1 sequence (Q26966 entry or part of it): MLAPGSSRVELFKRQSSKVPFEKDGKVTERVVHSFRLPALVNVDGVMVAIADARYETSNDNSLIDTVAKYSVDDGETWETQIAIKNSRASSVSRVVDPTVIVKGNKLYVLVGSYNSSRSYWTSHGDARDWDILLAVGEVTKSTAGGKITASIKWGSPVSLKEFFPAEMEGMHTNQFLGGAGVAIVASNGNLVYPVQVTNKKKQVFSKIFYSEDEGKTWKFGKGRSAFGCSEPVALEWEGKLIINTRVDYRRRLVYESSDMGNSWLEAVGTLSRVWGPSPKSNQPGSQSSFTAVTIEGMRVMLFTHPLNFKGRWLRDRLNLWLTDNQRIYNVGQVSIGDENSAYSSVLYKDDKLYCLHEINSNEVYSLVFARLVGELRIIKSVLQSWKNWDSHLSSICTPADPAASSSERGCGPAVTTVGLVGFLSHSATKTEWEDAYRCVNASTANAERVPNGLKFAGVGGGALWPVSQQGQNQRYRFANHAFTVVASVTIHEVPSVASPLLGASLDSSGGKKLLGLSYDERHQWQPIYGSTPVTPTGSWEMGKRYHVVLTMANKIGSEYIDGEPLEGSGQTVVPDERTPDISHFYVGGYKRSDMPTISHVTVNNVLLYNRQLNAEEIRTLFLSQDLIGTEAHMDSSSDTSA

SMILES	IC50 [1]	IC50 [2]	IC50 [3, 14]	CC50 at 24 h [4]	IC50 [5]	Kobs (12.5 μM) [6]	Kobs (25 μM) [6]	Kobs (50 μM) [6]	Kobs (100 μM) [6]	CC50 at 24 h [7]	selective index C2C12 [1]	selective index MK2 [3]	selectivity indices [3]	CC50 (C2C12 cells)	selective index MK2 [10]	IC50 [10]	CC50 (LLC-MK2 cells)	selective index C2C12 [11]	IC50 [11]	also measured
O=C(Cn1ccnc1[N+](=O)[O-])NCc1ccccc1 [BZN, reference compound]	6 ± 1 µM	1.64 µM	1.43 ± 0.1 µM	74.4 µM	34 µM	0.13 ± 0.01 s^–1	0.17 ± 0.05 s^–1	0.32 ± 0.04 s^–1	0.23 ± 0.07 s^–1	46.9 µM	–	–	–	–	–	–	–	–	–	IC50 [3]: 1.4 ± 0.1 µM
CC(=O)OC[C@H]1O[C@@H](n2cc(-c3ccc([N+](=O)[O-])cc3)nn2)[C@H](OC(C)=O)[C@@H](OC(C)=O)[C@H]1OC(C)=O [Compound 16, (2R,3S,4S,5R,6R)-2-(Acetoxymethyl)-6-(4-(4-nitrophenyl)-1H-1,2,3-triazol-1-yl)tetrahydro-2H-pyran-3,4,5-triyl Triacetate]	0.13 ± 0.01 µM	6 µM	0.16 ± 0.02 µM	> 80 µM	–	0.02 ± 0.02 s^–1	0.06 ± 0.01 s^–1	0.07 ± 0.01 s^–1	0.07 ± 0.01 s^–1	> 80 µM	621.1	484.3	exceeding 400	> 80 µM	124.9	0.6 ± 0.2 µM	> 80 µM	141.5	0.56 ± 0.09 µM	CC50 [8]: > 50 µM; CC50 at 3 days [9]: > 50 µM; solubility in the TcTS assay medium (Solubility observations): low solubility in the medium
O=[N+]([O-])c1ccc(-c2cn([C@@H]3O[C@H](CO)[C@H](O)[C@H](O)[C@H]3O)nn2)cc1 [Compound 19, (2R,3R,4S,5R,6R)-2-(Hydroxymethyl)-6-(4-(4-nitrophenyl)-1H-1,2,3-triazol-1-yl)tetrahydro-2H-pyran-3,4,5-triol]	0.11 ± 0.02 µM	–	0.1 ± 0.04 µM	> 80 µM	–	0.03 ± 0.01 s^–1	0.03 ± 0.01 s^–1	0.04 ± 0.02 s^–1	0.04 ± 0.01 s^–1	> 80 µM	677.4	782.8	exceeding 400	> 80 µM	39.4	2 ± 0.2 µM	> 80 µM	115.6	0.7 ± 0.3 µM	IC50 [12]: 1100 ± 100 µM
O=C(Cn1cc(-c2ccc([N+](=O)[O-])cc2)nn1)NCc1ccccc1 [hit 1]	–	–	–	–	7 µM	–	–	–	–	–	–	–	–	–	–	–	–	–	–	solubility in water [13]: low solubility in water

From publication PMC12120661, “Synthesis and Biological Evaluation of 4‑(4-Nitrophenyl)‑1H‑1,2,3-triazole Derivatives as Antitrypanosomal Agents” (ACS Omega, 2025)
